Measurements: publication PMC5180209 (Structure (London, England : 1993), 2016)

Biological target: B56 (Homo sapiens, UniProt Q13362)
Assay: Isothermal titration calorimetry
Format: binding
Details: ITC

| Substance | reduction of binding to B56 on removing residue 676 altogether (668KLpSPIIED675 compared with the 668-676 peptides) | increase of binding affinity for B56 as the salt concentration is reduced (salt concentration 300 mM to 150 mM) |
| --- | --- | --- |
| KLpSPIIED | ~ 1.7 fold | – |
| KLpSPIIEDE | – | ~ 3.6 fold |
